{
  "source": "PubChem BioAssay AID1963974",
  "about": "(Molecular Pharmacology Branch, DTP, NCI, 2024)",
  "system": "648629-189-R-J1-PDC spheroids with HUVEC/MSC, viability",
  "assay": "Anticancer human tumor 648629-189-R-J1-PDC patient-derived bladder carcinoma cell line growth inhibition [PI3K]",
  "conditions": "for IC50: curve of first compound; for viability, T/C: stronger effect = lower value",
  "in_short": "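We assembled tumor spheroids that included a stromal compartment of HUVEC and MSCs, then exposed them to targeted agents alone and together with PI3K pathway inhibitors. Concentration series descended by half-log from clinically achievable Cmax levels. Viability served as the endpoint.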",
  "data": [
    {"molecule": "Cn1ncc(Cl)c1-c1cc(C(=O)NC(CN)Cc2cccc(F)c2)sc1Cl", "note": "(configuration not stated) + CC(Nc1ncnc2nc[nH]c12)c1cc2cccc(Cl)c2c(=O)n1-c1ccccc1;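 note: spheroids exposed to agents for seven days before reading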;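 for viability, T/C: percent of vehicle control luminescence where 100% = DMSO treated spheroids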", "values": [
      {"measurement": "IC50", "setting": "second compound 0.0316 µM", "result": 0.991, "unit": "µM"},
      {"measurement": "IC50", "setting": "second compound 0.1 µM", "result": 0.769, "unit": "µM"},
      {"measurement": "IC50", "setting": "second compound 0.316 µM", "result": 0.708, "unit": "µM"},
      {"measurement": "IC50", "setting": "second compound 1 µM", "result": 0.709, "unit": "µM"},
      {"measurement": "IC50", "setting": "second compound 3.16 µM", "result": 0.646, "unit": "µM"},
      {"measurement": "IC50", "setting": "second compound 10 µM", "result": 0.479, "unit": "µM"},
      {"measurement": "viability, T/C", "setting": "second compound 0.0316 µM, first compound 0.0316 µM", "result": 129, "unit": "%"},
      {"measurement": "viability, T/C", "setting": "second compound 0.0316 µM, first compound 0.1 µM", "result": 90.4, "unit": "%"},
      {"measurement": "viability, T/C", "setting": "second compound 0.0316 µM, first compound 0.316 µM", "result": 68.3, "unit": "%"},
      {"measurement": "viability, T/C", "setting": "second compound 0.0316 µM, first compound 1 µM", "result": 45.8, "unit": "%"},
      {"measurement": "viability, T/C", "setting": "second compound 0.0316 µM, first compound 3.16 µM", "result": 26.5, "unit": "%"},
      {"measurement": "viability, T/C", "setting": "second compound 0.0316 µM, first compound 10 µM", "result": 10.4, "unit": "%"},
      {"measurement": "viability, T/C", "setting": "second compound 0.1 µM, first compound 0.0316 µM", "result": 97.8, "unit": "%"},
      {"measurement": "viability, T/C", "setting": "second compound 0.1 µM, first compound 0.1 µM", "result": 87.2, "unit": "%"},
      {"measurement": "viability, T/C", "setting": "second compound 0.1 µM, first compound 0.316 µM", "result": 71.8, "unit": "%"},
      {"measurement": "viability, T/C", "setting": "second compound 0.1 µM, first compound 1 µM", "result": 39.9, "unit": "%"},
      {"measurement": "viability, T/C", "setting": "second compound 0.1 µM, first compound 3.16 µM", "result": 27.5, "unit": "%"},
      {"measurement": "viability, T/C", "setting": "second compound 0.1 µM, first compound 10 µM", "result": 9.37, "unit": "%"},
      {"measurement": "viability, T/C", "setting": "second compound 0.316 µM, first compound 0.0316 µM", "result": 93.9, "unit": "%"},
      {"measurement": "viability, T/C", "setting": "second compound 0.316 µM, first compound 0.1 µM", "result": 103, "unit": "%"},
      {"measurement": "viability, T/C", "setting": "second compound 0.316 µM, first compound 0.316 µM", "result": 62.8, "unit": "%"},
      {"measurement": "viability, T/C", "setting": "second compound 0.316 µM, first compound 1 µM", "result": 42.6, "unit": "%"},
      {"measurement": "viability, T/C", "setting": "second compound 0.316 µM, first compound 3.16 µM", "result": 23.8, "unit": "%"},
      {"measurement": "viability, T/C", "setting": "second compound 0.316 µM, first compound 10 µM", "result": 7.95, "unit": "%"},
      {"measurement": "viability, T/C", "setting": "second compound 1 µM, first compound 0.0316 µM", "result": 108, "unit": "%"},
      {"measurement": "viability, T/C", "setting": "second compound 1 µM, first compound 0.1 µM", "result": 92.2, "unit": "%"},
      {"measurement": "viability, T/C", "setting": "second compound 1 µM, first compound 0.316 µM", "result": 62.2, "unit": "%"},
      {"measurement": "viability, T/C", "setting": "second compound 1 µM, first compound 1 µM", "result": 42.9, "unit": "%"},
      {"measurement": "viability, T/C", "setting": "second compound 1 µM, first compound 3.16 µM", "result": 27.2, "unit": "%"},
      {"measurement": "viability, T/C", "setting": "second compound 1 µM, first compound 10 µM", "result": 8.92, "unit": "%"},
      {"measurement": "viability, T/C", "setting": "second compound 3.16 µM, first compound 0.0316 µM", "result": 97.7, "unit": "%"},
      {"measurement": "viability, T/C", "setting": "second compound 3.16 µM, first compound 0.1 µM", "result": 93.8, "unit": "%"},
      {"measurement": "viability, T/C", "setting": "second compound 3.16 µM, first compound 0.316 µM", "result": 64.8, "unit": "%"},
      {"measurement": "viability, T/C", "setting": "second compound 3.16 µM, first compound 1 µM", "result": 36.7, "unit": "%"},
      {"measurement": "viability, T/C", "setting": "second compound 3.16 µM, first compound 3.16 µM", "result": 26.5, "unit": "%"},
      {"measurement": "viability, T/C", "setting": "second compound 3.16 µM, first compound 10 µM", "result": 7.12, "unit": "%"},
      {"measurement": "viability, T/C", "setting": "second compound 10 µM, first compound 0.0316 µM", "result": 99.7, "unit": "%"},
      {"measurement": "viability, T/C", "setting": "second compound 10 µM, first compound 0.1 µM", "result": 78.2, "unit": "%"},
      {"measurement": "viability, T/C", "setting": "second compound 10 µM, first compound 0.316 µM", "result": 56.9, "unit": "%"},
      {"measurement": "viability, T/C", "setting": "second compound 10 µM, first compound 1 µM", "result": 37.2, "unit": "%"},
      {"measurement": "viability, T/C", "setting": "second compound 10 µM, first compound 3.16 µM", "result": 21.3, "unit": "%"},
      {"measurement": "viability, T/C", "setting": "second compound 10 µM, first compound 10 µM", "result": 6.29, "unit": "%"}
    ]}
  ]
}
